This note sets out measurements from patent publication US11007212B2, “Microbubble complexes and methods of use” (General Electric Company, priority 2011, dated 2021).

The target of one data set is T1, Optison (Homo sapiens, UniProt P02768).
T1 construct: purchased GE Healthcare, Chalfont St. Giles, United Kingdom
In words: Gel shift assay, binding of siRNA to Optison albumin solution. (In EMSA bound probe runs differently from free probe, usually more slowly.)

Another data set has as its target native HSA (Homo sapiens, UniProt P02768).
Data set [1] has as its system MATBIII rat mammary carcinoma cells. The data set can be described thus: Delivery of siRNA to MATBIII cells, Optison/ultrasound versus RNAifect. The data set is classed as cell-based. The note with it: 24 hours. As to the method:
(§1) MATBIII rat mammary carcinoma and U-87 human glioblastoma cells were cultured in McCoy's 5A Medium (modified) (1×) (Invitrogen, Carlsbad, Calif., USA) and Eagle's Minimum Essential Medium (EMEM) (ATCC, Manassas, Va.) respectively. Both the media solutions were supplemented with 10% heat deactivated fetal bovine serum (FBS) (Fisher Scientific, Springfield, N.J.) and 1% penicillin-streptomycin (Sigma Aldrich, St Louis, Mo.). The cells were maintained at 37° C. in a humidified atmosphere with 5% CO2.
(§2) MATB-III and U-87 cells were grown in 10 mL capacity Opticell units (Nalge Nunc International, Rochester, N.Y.) to 90% confluence. The media in OptiCell was replaced with 10 mL fresh media containing 40 pmoles of either cy3-siRNA or cholesterol-siRNA. […] After incubation, the cells were imaged using a fluorescence microscope (Zeiss Axio Imager.Z1, Carl Zeiss). […] In the region of interest (ROI) in the fluorescent images, cell fluorescence was measured and the mean values of cell fluorescence were calculated. ImageJ was used to process the images and calculate fluorescence intensities.
(§3) The data are reported as mean+1.0 standard error (SE) for N=4. The statistical significance of the differences between the groups was evaluated using two-sample t-test and the statistical analyses were carried out using Minitab® 12 (Minitab Inc, State College, Pa. USA).

Data set [2] has as its system U-87 human glioblastoma cells. The data set can be described thus: Delivery of siRNA to U-87 tumor cells (cell cy3-fluorescence). The data set is classed as cell-based. The settings on record: U-87 cells, 40 pmoles siRNA, 24 hours after sonication, MI>1.3. The protocol: as §1, §2, §3
The next data set relates to denatured HSA. The data set can be described thus: Gel shift assay, binding of siRNA to denatured HSA. More on the design: species or system human. The settings on record: same amount of denatured HSA, compared with native HSA and Optison. An excerpt: The reaction buffer was 1× PBS, pH 7.4.

{CholTEG} = cholesteryl-TEG lipid

T1 sequence (P02768 25-609): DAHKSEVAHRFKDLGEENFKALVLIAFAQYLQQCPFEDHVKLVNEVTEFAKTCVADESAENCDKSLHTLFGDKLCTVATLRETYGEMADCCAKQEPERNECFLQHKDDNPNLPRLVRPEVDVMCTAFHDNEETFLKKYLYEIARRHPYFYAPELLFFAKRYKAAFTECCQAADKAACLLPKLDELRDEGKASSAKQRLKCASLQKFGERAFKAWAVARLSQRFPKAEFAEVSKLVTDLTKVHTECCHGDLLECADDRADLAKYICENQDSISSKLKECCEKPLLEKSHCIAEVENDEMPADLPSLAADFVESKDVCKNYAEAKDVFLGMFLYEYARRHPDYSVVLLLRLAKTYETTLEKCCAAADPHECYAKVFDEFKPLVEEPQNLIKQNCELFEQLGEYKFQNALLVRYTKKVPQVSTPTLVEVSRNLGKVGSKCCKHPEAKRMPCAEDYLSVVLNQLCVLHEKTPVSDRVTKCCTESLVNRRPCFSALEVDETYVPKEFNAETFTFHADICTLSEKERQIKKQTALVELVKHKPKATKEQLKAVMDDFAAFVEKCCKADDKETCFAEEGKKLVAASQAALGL
Sequence of native HSA (P02768 25-609): as above
Description for native HSA: Optison™ (GE Healthcare, Chalfont St. Giles, United Kingdom, 10 mg/ml albumin) was centrifuged; the top layer was discarded and the excess albumin solution in the bottom was used for the binding studies. Lyophilized human serum albumin (HSA) powder (Sigma Aldrich, St. Louis Mo.) was dissolved in 1× phosphate buffered saline (PBS) to make a stock solution of 10 mg/mL. Both Optison and native albumin solution dilutions were prepared with 1× PBS. Denatured HSA solution was prepared by heating native ESA solution to 80° C. for 20 minutes.
The stock solutions of cy3-siRNA and cy3-siRNA-cholesterol, 20 μM were prepared in RNAse free water and stored at −20° C. […]
All the reactions were loaded onto precast 6% nondenaturing polyacrylamide gels (Invitrogen, Carlsbad, Calif., USA). […] The gels containing either DNA, protein or both were imaged for cy3 fluorescence using a typhoon scanner (Typhoon™9410, GE Healthcare).
The fluorescence of Cy3 attached to siRNA can be visualized as distinct siRNA bands on the gel.
The fluorescence intensity of siRNA in each lane was estimated manually by drawing a box around the bands. […] Fluorescence intensities of bound siRNA over a wide range of albumin concentrations were calculated. Relative fluorescence, R was calculated as: R=(Fbound-Ffree)/Ffree (1) […]

As to “cholesterol-siRNA: siRNA for VEGF silencing, 5'-Cy3 labelled, cholesteryl TEG lipid at 3' of sense strand (SEQ ID NO: 1 and 2) (sense GCAUUUGUUUGUCCAAGAUUU; antisense AAAUCUUGGACAAACAAAUGC; sense: 3' {CholTEG}, sugars by position and backbone not given here; antisense: chemistry not given here; 5'-Cy3 label, further chemistry not fully specified)”, the “Binding to Optison solution in gel shift assay” value in the data set with Optison (0 to 50 pmoles albumin) is “bound”. The Kd (usually the equilibrium constant for the complex coming apart) with Optison (binding to Optison, gel shift, non-linear fit, read-out: Dissociation constant, kd) amounted to 7.16 µM; with native HSA it was 6.4 µM. For the same substance, the “Amount bound to Optison solution compared with native HSA” value with Optison (low albumin concentration, 0 to 15 μM) was “higher”. Besides, in the data set with native HSA (0 to 50 pmoles albumin), the “Binding to native HSA in gel shift assay” value is recorded as “bound”. Further, the “Average cell fluorescence, Optison/ultrasound delivery versus RNAifect” value in data set [1] is listed as “no significant difference”. For the same substance, in data set [2], the “Increase in average cell fluorescence, Optison/ultrasound treated versus untreated cells” value is recorded as 53%. Also, the “Binding to denatured HSA in gel shift assay” value in the data set on denatured HSA is reported as “significantly decreased”.
